US20170037028A1 (BAYER PHARMA AKTIENGESELLSCHAFT, priority 2013, published 2017)

biological target: T1, GLUT1 (Homo sapiens, UniProt P11166); test: Indirect measurement of GLUT1 activity by quantification of intracellular ATP levels (glucose induced ATP increase); format: cell-based; parameters: endogenous in cells; host or cells: DLD1 or CHO-K1; conditions: read-out: IC50 regarding glucose induced ATP increase (GLUT1 inhibition)
T1 sequence (P11166 1-492): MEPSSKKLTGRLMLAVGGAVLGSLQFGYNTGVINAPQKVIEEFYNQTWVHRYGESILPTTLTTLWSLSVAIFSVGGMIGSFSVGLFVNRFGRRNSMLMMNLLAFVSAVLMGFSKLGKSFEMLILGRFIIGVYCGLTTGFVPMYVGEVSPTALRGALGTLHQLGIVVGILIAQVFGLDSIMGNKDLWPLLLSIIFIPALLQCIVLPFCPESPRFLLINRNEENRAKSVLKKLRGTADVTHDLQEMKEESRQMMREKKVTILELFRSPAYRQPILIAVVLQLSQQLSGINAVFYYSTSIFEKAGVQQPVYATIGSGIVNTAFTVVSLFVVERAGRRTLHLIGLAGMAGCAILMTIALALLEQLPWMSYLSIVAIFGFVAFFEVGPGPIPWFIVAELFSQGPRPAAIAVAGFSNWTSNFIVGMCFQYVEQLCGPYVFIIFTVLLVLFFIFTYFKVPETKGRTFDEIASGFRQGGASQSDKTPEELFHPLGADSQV
How it was run: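 DLD1 or CHO-K1 cells were starved overnight in glucose-free medium with 1% FCS, then combined with an oxidative phosphorylation inhibitor. GLUT1 activity was read as glucose-induced ATP increase, GLUT2 as fructose-induced. Intracellular ATP was quantified by CellTiter-Glo luminescence.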

| SMILES | IC50 |
| --- | --- |
| Cc1cccc(Cn2nc(C)c(NC(=O)c3cc(C)nc4ccc(C)cc34)c2C)c1 [Example 101, N-[3,5-dimethyl-1-(3-methylbenzyl)-1H-pyrazol-4-yl]-2,6-dimethylquinoline-4-carboxamide] | 396 nM |
| Cc1cc(C#N)c2nc(C(F)(F)F)cc(C(=O)Nc3c(C)nn(Cc4ccc(F)cc4)c3C)c2c1 [Example 102, 8-cyano-N-[1-(4-fluorobenzyl)-3,5-dimethyl-1H-pyrazol-4-yl]-6-methyl-2-(trifluoromethyl)quinoline-4-carboxamide] | 446 nM |
| Cc1nn(Cc2cccc(F)c2)c(C)c1NC(=O)c1cc(C(F)(F)F)nc2c(Cl)cc(Cl)cc12 [Example 104, 6,8-dichloro-N-[1-(3-fluorobenzyl)-3,5-dimethyl-1H-pyrazol-4-yl]-2-(trifluoromethyl)quinoline-4-carboxamide] | 519 nM |
| Cc1nn(Cc2ccc(F)cc2)c(C)c1NC(=O)c1cc(C(F)(F)F)nc2cc(Cl)c(Cl)cc12 [Example 106, 6,7-dichloro-N-[1-(4-fluorobenzyl)-3,5-dimethyl-1H-pyrazol-4-yl]-2-(trifluoromethyl)quinoline-4-carboxamide] | 571 nM |
| Cc1ccc2nc(C)cc(C(=O)Nc3c(C)nn(Cc4ccc(C(F)(F)F)cc4)c3C)c2c1 [Example 107, N-{3,5-dimethyl-1-[4-(trifluoromethyl)benzyl]-1H-pyrazol-4-yl}-2,6-dimethylquinoline-4-carboxamide] | 593 nM |
| COc1cccc(Cn2nc(C)c(NC(=O)c3cc(C)nc4ccc(C)cc34)c2C)c1 [Example 109, N-[1-(3-methoxybenzyl)-3,5-dimethyl-1H-pyrazol-4-yl]-2,6-dimethylquinoline-4-carboxamide] | 688 nM |
| COc1cc(C(=O)Nc2c(C)nn(Cc3ccccn3)c2C)c2ccccc2n1 [Example 110, N-[3,5-dimethyl-1-(pyridin-2-ylmethyl)-1H-pyrazol-4-yl]-2-methoxyquinoline-4-carboxamide] | 708 nM |
| Cc1ccc2nc(C)cc(C(=O)Nc3c(C)nn(Cc4ccccc4C)c3C)c2c1 [Example 111, N-[3,5-dimethyl-1-(2-methylbenzyl)-1H-pyrazol-4-yl]-2,6-dimethylquinoline-4-carboxamide] | 708 nM |
| Cc1ccc2nc(C)cc(C(=O)Nc3c(C)nn(Cc4ccccc4F)c3C)c2c1 [Example 112, N-[1-(2-fluorobenzyl)-3,5-dimethyl-1H-pyrazol-4-yl]-2,6-dimethylquinoline-4-carboxamide] | 771 nM |
| Cc1nn(Cc2cccc(OC(F)(F)F)c2)c(C)c1NC(=O)c1cc(C(F)(F)F)nc2ccc(Br)cc12 [Example 113, 6-bromo-N-{3,5-dimethyl-1-[3-(trifluoromethoxy)benzyl]-1H-pyrazol-4-yl}-2-(trifluoromethyl)quinoline-4-carboxamide] | 813 nM |
| Cc1ccc2nc(C)cc(C(=O)Nc3c(C)nn(Cc4ccccc4C#N)c3C)c2c1 [Example 114, N-[1-(2-cyanobenzyl)-3,5-dimethyl-1H-pyrazol-4-yl]-2,6-dimethylquinoline-4-carboxamide] | 833 nM |
| COc1cc(C(=O)Nc2c(C)nn(Cc3cccc(OC(F)(F)F)c3)c2C)c2ccccc2n1 [Example 115, N-{3,5-dimethyl-1-[3-(trifluoromethoxy)benzyl]-1H-pyrazol-4-yl}-2-methoxyquinoline-4-carboxamide] | 833 nM |
| Cc1cccnc1Cn1nc(C)c(NC(=O)c2cc(C(F)(F)F)nc3ccc(Br)cc23)c1C [Example 116, 6-bromo-N-{3,5-dimethyl-1-[(3-methylpyridin-2-yl)methyl]-1H-pyrazol-4-yl}-2-(trifluoromethyl)quinoline-4-carboxamide] | 889 nM |
| Cc1ccc2nc(C)cc(C(=O)Nc3c(C)nn(Cc4cccc(OC(F)(F)F)c4)c3C)c2c1 [Example 117, N-{3,5-dimethyl-1-[3-(trifluoromethoxy)benzyl]-1H-pyrazol-4-yl}-2,6-dimethylquinoline-4-carboxamide] | 938 nM |
| Cc1nn(Cc2ccccc2C#N)c(C)c1NC(=O)c1cc(C(C)C)nc2ccc(Br)cc12 [Example 118, 6-bromo-N-[1-(2-cyanobenzyl)-3,5-dimethyl-1H-pyrazol-4-yl]-2-(propan-2-yl)quinoline-4-carboxamide] | 0.5 nM |
| Cc1nn(Cc2ccc(F)cc2)c(C)c1NC(=O)c1cc(C(N)=O)nc2cc(F)c(F)cc12 [Example 120, 6,7-difluoro-N^4-[1-(4-fluorobenzyl)-3,5-dimethyl-1H-pyrazol-4-yl]quinoline-2,4-dicarboxamide] | 1.5 nM |
| Cc1nn(Cc2ccc(F)cc2)c(C)c1NC(=O)c1cc(C(F)(F)F)nc2cc(F)c(Br)cc12 [Example 124, 6-bromo-7-fluoro-N-[1-(4-fluorobenzyl)-3,5-dimethyl-1H-pyrazol-4-yl]-2-(trifluoromethyl)quinoline-4-carboxamide] | 2.3 nM |
| Cc1nn(Cc2ccc(F)cc2)c(C)c1NC(=O)c1cc(C(N)=O)nc2c(Cl)cc(Cl)cc12 [Example 127, 6,8-dichloro-N^4-[1-(4-fluorobenzyl)-3,5-dimethyl-1H-pyrazol-4-yl]quinoline-2,4-dicarboxamide] | 3.1 nM |
| Cc1c(NC(=O)c2cc(C(N)=O)nc3ccccc23)c(C(F)(F)F)nn1Cc1ccc(F)c(F)c1 [Example 128, N^4-[1-(3,4-difluorobenzyl)-5-methyl-3-(trifluoromethyl)-1H-pyrazol-4-yl]quinoline-2,4-dicarboxamide] | 3.3 nM |
| Cc1nn(Cc2ccc(F)c(F)c2)c(C)c1NC(=O)c1cc(C(C)C)nc2ccc(Br)cc12 [Example 129, 6-bromo-N-[1-(3,4-difluorobenzyl)-3,5-dimethyl-1H-pyrazol-4-yl]-2-(propan-2-yl)quinoline-4-carboxamide] | 4.1 nM |
| Cc1c(NC(=O)c2cc(C(N)=O)nc3ccccc23)c(C(F)(F)F)nn1Cc1ccc(F)cc1 [Example 130, N^4-[1-(4-fluorobenzyl)-5-methyl-3-(trifluoromethyl)-1H-pyrazol-4-yl]quinoline-2,4-dicarboxamide] | 4.6 nM |

Further lines, results first:

| IC50 | SMILES |
| --- | --- |
| 362 nM | Cc1nn(Cc2ccc(F)cc2)c(C)c1NC(=O)c1cc(C(F)(F)F)nc2ccc(C(F)(F)F)cc12 [Example 98, N-[1-(4-fluorobenzyl)-3,5-dimethyl-1H-pyrazol-4-yl]-2,6-bis(trifluoromethyl)quinoline-4-carboxamide] |
| 364 nM | Cc1nn(Cc2ccc(F)cc2)c(C)c1NC(=O)c1cc(Cl)nc2ccccc12 [Example 99, 2-chloro-N-[1-(4-fluorobenzyl)-3,5-dimethyl-1H-pyrazol-4-yl]quinoline-4-carboxamide] |
| 371 nM | Cc1nn(Cc2ccc(F)cc2)c(C)c1NC(=O)c1cc(C2CC2)nc2cc(Br)ccc12 [Example 100, 7-bromo-2-cyclopropyl-N-[1-(4-fluorobenzyl)-3,5-dimethyl-1H-pyrazol-4-yl]quinoline-4-carboxamide] |
| 462 nM | Cc1nn(Cc2ccc(F)cc2)c(C)c1NC(=O)c1cc(C(F)(F)F)nc2ccc(C#N)cc12 [Example 103, 6-cyano-N-[1-(4-fluorobenzyl)-3,5-dimethyl-1H-pyrazol-4-yl]-2-(trifluoromethyl)quinoline-4-carboxamide] |
| 528 nM | Cc1cc(C(=O)Nc2c(C)nn(Cc3ccc(F)cc3)c2C)c2ccccc2n1 [Example 105, N-[1-(4-fluorobenzyl)-3,5-dimethyl-1H-pyrazol-4-yl]-2-methylquinoline-4-carboxamide] |
| 671 nM | Cc1nn(Cc2ccc(F)cc2)c(C)c1NC(=O)c1cc(C2CC2)nc2c(C(F)(F)F)cccc12 [Example 108, 2-cyclopropyl-N-[1-(4-fluorobenzyl)-3,5-dimethyl-1H-pyrazol-4-yl]-8-(trifluoromethyl)quinoline-4-carboxamide] |
| 1.3 nM | Cc1nn(Cc2ccc(F)cc2)c(C)c1NC(=O)c1cc(C(N)=O)nc2ccc(Br)cc12 [Example 119, 6-bromo-N^4-[1-(4-fluorobenzyl)-3,5-dimethyl-1H-pyrazol-4-yl]quinoline-2,4-dicarboxamide] |
| 1.7 nM | Cc1nn(Cc2ccc(F)cc2)c(C)c1NC(=O)c1cc(C(F)(F)F)nc2cc(F)c(Cl)cc12 [Example 121, 6-chloro-7-fluoro-N-[1-(4-fluorobenzyl)-3,5-dimethyl-1H-pyrazol-4-yl]-2-(trifluoromethyl)quinoline-4-carboxamide] |
| 1.9 nM | Cc1nn(Cc2ccc(F)cc2)c(C)c1NC(=O)c1cc(C(N)=O)nc2ccccc12 [Example 122, N^4-[1-(4-fluorobenzyl)-3,5-dimethyl-1H-pyrazol-4-yl]quinoline-2,4-dicarboxamide] |
| 2 nM | Cc1nn(Cc2ccc(F)c(F)c2)c(C)c1NC(=O)c1cc(C2CC2)nc2ccc(Br)cc12 [Example 123, 6-bromo-2-cyclopropyl-N-[1-(3,4-difluorobenzyl)-3,5-dimethyl-1H-pyrazol-4-yl]quinoline-4-carboxamide] |
| 2.5 nM | Cc1nn(Cc2ccc(F)cc2)c(C)c1NC(=O)c1cc(C2CC2)nc2ccc(Cl)cc12 [Example 125, 6-chloro-2-cyclopropyl-N-[1-(4-fluorobenzyl)-3,5-dimethyl-1H-pyrazol-4-yl]quinoline-4-carboxamide] |
